Measurements published in PMC7672424 (Nucleic Acids Research, 2020).

What was measured:
[1] = test system: Tel26 (DNA, G4) AAAGGGTTAGGGTTAGGGTTAGGGAA; test: CD titration; settings: 100 mM K+; 10 mM Tris-HCl pH 7.4; 265 nm peak decreased
tumor cell = test: Tumor cell proliferation (summary statement); assay type: cell-based; settings: summary value, abstract/introduction
Procedure: The cell growth effect of BMPQ-1 against different cell lines were tested via measuring the quantity of living cells using the Cell Counting Kit-8 (CCK8) (DOJINDO, Japan) according to the instruction. Cells were seeded in a 96-well plate (5 × 10^3 cells/well) and grown for 24 h for attachment. Then the cells were treated with various concentrations of BMPQ-1 and incubated at 37°C with 5% CO2 for 48 h. After incubation, the old medium was discarded followed by adding fresh medium containing 10% FBS in DMEM. Then 100 μl CCK-8 (10% in grow medium) was added into each well, and the cells were further incubated for 1 h. The optical density (OD) was detected at 450 nm by an automated microplate reader (Bio-Rad). The IC50 values were derived from the curves of the mean percentage of survival against the drug concentration. All the experiments were performed in triplicate.

TTA = settings: CD melting; 5 µM DNA, 20 µM compound; 10 mM Tris-HCl, 50 mM KCl, pH 7.4
Procedure: CD studies were performed on a Chirascan circular dichroism spectrophotometer (Jasco, Easton, MD, USA). A quartz cuvette with a 1 mm path length was used to record the spectra over a wavelength range of 220–320 nm with a 1 nm bandwidth. All the samples were prepared in buffer containing 10 mM Tris–HCl pH 7.4, 100 mM KCl. To ensure the concentrations of G-quadruplex units to be 20 μM, multiple G-quadruplexes forming oligonucleotides with different concentrations were used (TTA (G1) 20 μM, TTA45 (G2) 10 μM, TTA69 (G3) 6.67 μM, TTA93 (G4) 5 μM, TTA117 (G5) 4 μM, TTA141 (G6) 3.33 μM). The DNA samples were heated at 95°C for 5 min and cooled down slowly to room temperature. […] Melting curves were measured at 295 nm and the range of temperature was 4–95°C.
a Melting temperature (T ) of 5 µM DNA samples with and without 20 µM BMPQ-1 analogs in 10 mM Tris-HCl
buffer (50 mM KCl, pH 7.4) was determined by circular dichroism spectroscopy, and ΔTm/°C were derived by

TTA45 = test: smFRET analysis of TTA45 conformational ensemble; assay type: binding, human; settings: from high-FRET population against BMPQ-1 concentration; read-out: dissociation constant (KD)
Procedure: 5′- FAM and 3′-Cy5 labeled TTA45 oligonucleotides were annealed in the buffer of 10 mM Tris–HCl (pH 7.4) and 100 mM KCl, by heating to 95°C for 5 min and slowly cooling down to room temperature. smFRET data collection and analysis were performed as previously described ([43]). In brief, an A1 confocal microscope (Nikon, Japan) coupled to two picosecond pulsed diode laser heads (LDH-P-C-485B and LDH-P-C-640B, PicoQuant, Germany) and two SPCM-AQRH detectors (Excelitas, Canada) was used for fluorescence excitation and emission detection. A 60 × water immersion objective (WI 60×, NA 1.20, Nikon, Japan) was used for confocal laser microscopy, and the pinhole size was set at ∼100 μm. The laser power before the objective was set at ∼100 μW for the 485-nm laser and ∼35 μW for the 640-nm laser. […]
The smFRET measurements were performed at room temperature in pH 7.4 buffer containing 10 mM Tris–HCl, 100 mM KCl, and 0.01% (v/v) Tween 20, with additional 1 mM ascorbic acid and 1 mM methylviologen for photo bleaching and blinking minimization ([44]). […] The exact FRET efficiencies were calculated based on our calibrated parameters for the instrument and fluorophores, and the FRET efficiency distribution was analyzed with a multi-Gaussian mixture using a handwritten script.

A549 cells = test: Annexin V-FITC/PI apoptosis detection; assay type: cell-based, human; settings: A549, 3 μM, 24 h
Procedure: The A549 cells treated with BMPQ-1 or DMSO were washed twice with PBS and detected using the annexin V-FITC/PI apoptosis detection kit (DOJINDO, Japan). The cells were pelleted and resuspended in the binding buffer. Annexin V-FITC and PI were added, and the cells were disturbed by gently vortexing the samples prior to incubation for 5 min in the dark. Emitted florescence was quantitated by flow cytometry (BD FacsAria, USA). For each analysis, 2.0 × 10^4 events were collected.
Figure S10. BMPQ-1 induced cell apoptosis of A549. (A) Apoptosis evaluation of A549 cells after 24 h treatment with various concentrations of BMPQ-1. The cells were collected and stained with Annexin V–FITC and PI. Region LL represents the viable cells; LR represents the early apoptotic cells; UR represents the late apoptotic cells; UL represents damaged cells and cell debris.
(B) Percentage of apoptosis in A549 cells. […]

[2] = test system: c-KIT2 (DNA, G4) GGGCGGGCGCGAGGGAGGGG; test: ligand fluorescence enhancement; settings: 100 mM K+ (KCl) plus potassium phosphate; 10 mM K2HPO4/KH2PO4 pH 7.0; 3 µM compound, 4 µM DNA; enhancement below 3-fold
[3] = test system: c-MYC Pu22 (DNA, G4) TGAGGGTGGGTAGGGTGGGTAA; test: ligand fluorescence enhancement; settings: 100 mM K+ (KCl) plus potassium phosphate; 10 mM K2HPO4/KH2PO4 pH 7.0; 3 µM compound, 4 µM DNA; enhancement below 3-fold
HT29 xenograft = HT29 xenograft mouse model; assay type: in vivo
Procedure: Male BALB/C-nu/nu mice (4 weeks old) were purchased from the Beijing Vital River Laboratory Animal Technology Co., Ltd. and housed at Experimental Animal Center of Huazhong Agriculture University (Wuhan, China) and maintained in pathogen-free conditions (12 h light–dark cycle at 24 ± 1°C with 60−70% humidity and provided with food and water ad libitum). HT29 cells were harvested during log-phase growth and were resuspended in FBS-free DMEM medium to the density of 4 × 10^6 cells per 100 μl. 100 μl cells were injected subcutaneously in the right back of the mice. Tumor growth was examined three times a week after implantation, until the tumor volume reached ∼40 mm^3. The mice were randomly divided into two groups, and each group had five mice. Subcutaneous injection was carried out with BMPQ-1 at a dose of 15 mg/kg for the mice in the experimental group. Mice in the control group were treated with an equivalent volume of normal saline. The volume of the tumor mass was measured with an electronic caliper and calculated as 1/2 × length × width^2 in mm^3. The tumors size and the body weight of the mice were measured every day after drug treatment, and growth curves were plotted using average tumor volume within each experimental group. After treatment for 3 weeks, tumor tissues were collected and tested for the weight and the volume.
We tested BMPQ-1 in a HT29 xenograft mouse model of human colon adenocarcinoma. HT29 tumors were established through the subcutaneous injection of HT29 cells into the right back of BALB/C-nu/nu mice ([57],[58]). The mice were divided into normal saline treated group, and BMPQ-1 (15 mg/kg) treated group, n = 5/group. Subcutaneous injection was given daily. After 3 weeks treatment, the tumors were excised and measured for final size (Figure 3B). The tumor volume in the normal saline group reached 700 mm^3 (Figure 3C). In contrast, in the tumor-bearing mice treated with BMPQ-1, the tumor volume was ∼300 mm^3.

[4] = 15 mg/kg subcutaneous daily, 3 weeks

## Cc1ccc(Cn2cc3c(-c4ccc5c(c4)OCO5)nnc-3c3cc4c(cc32)OCO4)cc1 [BMPQ-1]
[1]
  binding: yes
Tumor cell
  IC50: ~1000 nM
TTA
  ΔTm (°C) TTA: 8.4 °C
TTA45
  Kd: 530 nM
A549 cells
  population of apoptotic cells: approximately 60%
[2]
  binding: weak
[3]
  binding: weak
HT29 xenograft; [4]
  mouse body weight: no significant change
  tumor weight: obvious decrease
HT29 xenograft; 15 mg/kg subcutaneous daily, 3 weeks, saline group 700 mm^3
  tumor volume: ~300 mm^3
HT29 xenograft; versus control
  tumor growth rate in mouse: by half
